From publication PMC9101373, “Design of DNA Intercalators Based on 4-Carboranyl-1,8-Naphthalimides: Investigation of Their DNA-Binding Ability and Anticancer Activity” (International Journal of Molecular Sciences, 2022) come the findings set out here.

This test has as its system calf thymus DNA (ct-DNA). Put plainly: UV–vis absorption titration with ct-DNA, binding constant Kb. As to conditions: 10 µM compound, ct-DNA 1.25–15 µM. The source says:
The interaction of 1,8-naphthalimides bearing carborane clusters with ct-DNA was also studied by UV–vis absorption titration to better understand the mode of interaction and binding strength. For compounds interacting with DNA by intercalation, bathochromic and hypochromic effects are observed in the absorption spectra. The spectral changes observed in the electronic absorption of 6–11, 16–19, 36–43, and 54–61 in the absence and presence of ct-DNA are illustrated in Figures S271–S296 (ESI). Progressive addition of ct-DNA at the concentration of 1.25–15 µM to a fixed amount of modified naphthalic anhydride or naphthalimide (10 µM concentration) decreased absorbance for almost all the tested modified conjugates, except conjugates 14, 15, and 22–27 for which changes in absorbance were not observed. […] Hypochromicity (10–56%) was also observed for all conjugates, with the highest value for compound 40.
To compare the DNA-binding strength of the tested conjugates, we calculated the binding constant Kb, as described in the Materials and Methods section. […] For conjugates 14, 15, and 22–27, the Kb value could not be determined due to the lack of noticeable changes in the UV spectra.
The measurements were performed by adding aliquots of DMSO stock solution of the tested compounds to the buffer solution (pH 7.4, 20 mM, 50 mM NaCl, Tris-HCl buffer, DMSO content of the final solutions = 0.40–0.61%) to the final concentration of 10 µM. The tested compounds were incubated 5 min, with increasing concentrations ranging from 0 to 15 µM of ct-DNA at 37 °C, then the UV–vis absorption spectra, between 310 and 500 nm (310–550 nm for compounds 36–43 and 54–61), were recorded using a GBC Cintra10 UV–vis spectrometer (Dandenong, Australia) equipped with a GBC Thermocell Peltier Power Supply (Dandenong, Australia) using a 1 cm path length cell. The binding constant was calculated according to the following equation [53]: A0/A−A0=εG/εH−G−εG +εG/εH−G−εG ×1/Kb[DNA] where Kb is the binding constant, A0 and A are the absorbance of the free tested compound, and the apparent one, εG and εH−G are their coefficient, respectively, and [DNA] is the concentration of [DNA] in the base pair. The slope to intercept ratio of the plot between A0/A − A0 versus 1/[DNA] yielded the binding constant.

Regarding “N-[2-(Dimethylamino)ethyl]-4-[(6-(2-(1,7-dicarba-closo-dodecaborane-1-yl)-ethylamino)hexyl)amino]-1,8-naphthalimide [Compound 59]”, the bathochromic shift is listed as 1–2 nm.

For the substance “N-[2-(Dimethylamino)ethyl]-4-[(2-(2-(1,7-dicarba-closo-dodecaborane-1-yl)-ethylamino)ethyl)amino]-1,8-naphthalimide [Compound 55]”, the bathochromic shift is 1–2 nm.
